Data: patent US4740601A, “Imidazole derivatives having antimicrobial activities” (SS Pharmaceutical Co., Ltd., priority 1985, dated 1988)
Values after ≈ are worked out from the molar mass of the structure shown.

test system: Sarcina lutea ATCC 9341; test: antimicrobial activity, MIC; format: cell-based; conditions: Sarcina lutea ATCC 9341

Structure (SMILES) | MIC [µg/mL]
CCCOc1ccccc1C(=CSCc1ccccc1)n1ccnc1 (single isomer, unassigned) [Compound 4] | 6.25 (≈ 17.8 µM)
CCCOc1ccccc1C(=CSc1ccccc1)n1ccnc1 (single isomer, unassigned) [Compound 65] | 3.12 (≈ 9.27 µM)

test system: Pyricularia oryzae IAM 5016; test: microbe, parasite or virus in culture; format: cell-based; conditions: Pyricularia oryzae IAM 5016

Structure (SMILES) | MIC [µg/mL]
CCCOc1ccccc1C(=CSCc1ccccc1)n1ccnc1 (single isomer, unassigned) [Compound 4] | < 0.2
CCCOc1ccccc1C(=CSc1ccccc1)n1ccnc1 (single isomer, unassigned) [Compound 65] | 1.56 (≈ 4.64 µM)

test system: Cladosporium fulvum IAM 5006; test: antimicrobial activity, MIC; format: cell-based; conditions: Cladosporium fulvum IAM 5006

Structure (SMILES) | MIC [µg/mL]
CCCOc1ccccc1C(=CSCc1ccccc1)n1ccnc1 (single isomer, unassigned) [Compound 4] | 25 (≈ 71.3 µM)
CCCOc1ccccc1C(=CSc1ccccc1)n1ccnc1 (single isomer, unassigned) [Compound 65] | > 100

test system: Staphylococcus aureus Smith; test: antimicrobial activity, MIC; format: cell-based; conditions: not given

Structure (SMILES) | MIC [µg/mL]
CCCOc1ccccc1C(=CSCc1ccccc1)n1ccnc1 (single isomer, unassigned) [Compound 4] | 12.5 (≈ 35.7 µM)
CCCOc1ccccc1C(=CSc1ccccc1)n1ccnc1 (single isomer, unassigned) [Compound 65] | 6.25 (≈ 18.6 µM)

test system: Fusarium moniliforme IAM 5062; test: antimicrobial activity, MIC; format: cell-based; conditions: Fusarium moniliforme IAM 5062

Structure (SMILES) | MIC [µg/mL]
CCCOc1ccccc1C(=CSCc1ccccc1)n1ccnc1 (single isomer, unassigned) [Compound 4] | 0.78 (≈ 2.23 µM)
CCCOc1ccccc1C(=CSc1ccccc1)n1ccnc1 (single isomer, unassigned) [Compound 65] | > 100

test system: Penicillium chrysogenum ATCC 6010; test: antimicrobial activity, MIC; format: cell-based; conditions: Penicillium chrysogenum ATCC 6010

Structure (SMILES) | MIC [µg/mL]
CCCOc1ccccc1C(=CSCc1ccccc1)n1ccnc1 (single isomer, unassigned) [Compound 4] | 3.12 (≈ 8.9 µM)
CCCOc1ccccc1C(=CSc1ccccc1)n1ccnc1 (single isomer, unassigned) [Compound 65] | > 100

test system: Staphylococcus aureus FDA 209P; test: antimicrobial activity, MIC; format: cell-based; conditions: not given

Structure (SMILES) | MIC [µg/mL]
CCCOc1ccccc1C(=CSCc1ccccc1)n1ccnc1 (single isomer, unassigned) [Compound 4] | 25 (≈ 71.3 µM)
CCCOc1ccccc1C(=CSc1ccccc1)n1ccnc1 (single isomer, unassigned) [Compound 65] | 12.5 (≈ 37.2 µM)

test system: Helminthosporium sesamum IAM 5012; test: antimicrobial activity, MIC; format: cell-based; conditions: Helminthosporium sesamum IAM 5012

Structure (SMILES) | MIC [µg/mL]
CCCOc1ccccc1C(=CSCc1ccccc1)n1ccnc1 (single isomer, unassigned) [Compound 4] | < 0.2
CCCOc1ccccc1C(=CSc1ccccc1)n1ccnc1 (single isomer, unassigned) [Compound 65] | 100 (≈ 297 µM)

test system: Candida albicans NHL 4019; test: antimicrobial activity, MIC; format: cell-based; conditions: Candida albicans NHL 4019

Structure (SMILES) | MIC [µg/mL]
CCCOc1ccccc1C(=CSCc1ccccc1)n1ccnc1 (single isomer, unassigned) [Compound 4] | 25 (≈ 71.3 µM)
CCCOc1ccccc1C(=CSc1ccccc1)n1ccnc1 (single isomer, unassigned) [Compound 65] | > 100

test system: Trichophyton tonsurans IFO 5928; test: antimicrobial activity, MIC; format: cell-based; conditions: Trichophyton tonsurans IFO 5928

Structure (SMILES) | MIC [µg/mL]
CCCOc1ccccc1C(=CSCc1ccccc1)n1ccnc1 (single isomer, unassigned) [Compound 4] | < 0.2
CCCOc1ccccc1C(=CSc1ccccc1)n1ccnc1 (single isomer, unassigned) [Compound 65] | 12.5 (≈ 37.2 µM)

test system: Staphylococcus aureus Terajima; test: antimicrobial activity, MIC; format: cell-based; conditions: not given

Structure (SMILES) | MIC [µg/mL]
CCCOc1ccccc1C(=CSCc1ccccc1)n1ccnc1 (single isomer, unassigned) [Compound 4] | 12.5 (≈ 35.7 µM)
CCCOc1ccccc1C(=CSc1ccccc1)n1ccnc1 (single isomer, unassigned) [Compound 65] | 6.25 (≈ 18.6 µM)

test system: Microsporum gypseum IFO 8231; test: antimicrobial activity, MIC; format: cell-based; conditions: Microsporum gypseum IFO 8231

Structure (SMILES) | MIC [µg/mL]
CCCOc1ccccc1C(=CSCc1ccccc1)n1ccnc1 (single isomer, unassigned) [Compound 4] | < 0.2
CCCOc1ccccc1C(=CSc1ccccc1)n1ccnc1 (single isomer, unassigned) [Compound 65] | 12.5 (≈ 37.2 µM)

test system: Bacillus subtilis ATCC 6633; test: antimicrobial activity, MIC; format: cell-based; conditions: Bacillus subtilis ATCC 6633

Structure (SMILES) | MIC [µg/mL]
CCCOc1ccccc1C(=CSCc1ccccc1)n1ccnc1 (single isomer, unassigned) [Compound 4] | 6.25 (≈ 17.8 µM)
CCCOc1ccccc1C(=CSc1ccccc1)n1ccnc1 (single isomer, unassigned) [Compound 65] | 3.12 (≈ 9.27 µM)

test system: Saccharomyces ruxii 6507; test: antimicrobial activity, MIC; format: cell-based; conditions: Saccharomyces ruxii 6507

Structure (SMILES) | MIC [µg/mL]
CCCOc1ccccc1C(=CSCc1ccccc1)n1ccnc1 (single isomer, unassigned) [Compound 4] | < 0.2

same assay, conditions: Saccharomyces ruxii 6507; read-out: MIC

Structure (SMILES) | MIC [µg/mL]
CCCOc1ccccc1C(=CSc1ccccc1)n1ccnc1 (single isomer, unassigned) [Compound 65] | 6.25 (≈ 18.6 µM)

test system: Micrococcus lysodeixticus IFO 3333; test: antimicrobial activity, MIC; format: cell-based; conditions: Micrococcus lysodeixticus IFO 3333

Structure (SMILES) | MIC [µg/mL]
CCCOc1ccccc1C(=CSCc1ccccc1)n1ccnc1 (single isomer, unassigned) [Compound 4] | 3.12 (≈ 8.9 µM)
CCCOc1ccccc1C(=CSc1ccccc1)n1ccnc1 (single isomer, unassigned) [Compound 65] | 1.56 (≈ 4.64 µM)

test system: Saccharomyces cerevisiae ATCC 9763; test: antimicrobial activity, MIC; format: cell-based; conditions: Saccharomyces cerevisiae ATCC 9763

Structure (SMILES) | MIC [µg/mL]
CCCOc1ccccc1C(=CSCc1ccccc1)n1ccnc1 (single isomer, unassigned) [Compound 4] | < 0.2
CCCOc1ccccc1C(=CSc1ccccc1)n1ccnc1 (single isomer, unassigned) [Compound 65] | 25 (≈ 74.3 µM)

test system: Debaryomyces kloeckeri IFO 0015; test: antimicrobial activity, MIC; format: cell-based; conditions: not given

Structure (SMILES) | MIC [µg/mL]
CCCOc1ccccc1C(=CSCc1ccccc1)n1ccnc1 (single isomer, unassigned) [Compound 4] | 6.25 (≈ 17.8 µM)
CCCOc1ccccc1C(=CSc1ccccc1)n1ccnc1 (single isomer, unassigned) [Compound 65] | > 100

test system: Epidermophyton floccosum IFO 9045; test: antimicrobial activity, MIC; format: cell-based; conditions: Epidermophyton floccosum IFO 9045

Structure (SMILES) | MIC [µg/mL]
CCCOc1ccccc1C(=CSCc1ccccc1)n1ccnc1 (single isomer, unassigned) [Compound 4] | 1.78 (≈ 5.08 µM)
CCCOc1ccccc1C(=CSc1ccccc1)n1ccnc1 (single isomer, unassigned) [Compound 65] | 100 (≈ 297 µM)

test system: Microsporum cookei IFO 8303; test: antimicrobial activity, MIC; format: cell-based; conditions: Microsporum cookei IFO 8303

Structure (SMILES) | MIC [µg/mL]
CCCOc1ccccc1C(=CSCc1ccccc1)n1ccnc1 (single isomer, unassigned) [Compound 4] | 1.56 (≈ 4.45 µM)
CCCOc1ccccc1C(=CSc1ccccc1)n1ccnc1 (single isomer, unassigned) [Compound 65] | 100 (≈ 297 µM)

test system: Candida albicans Yu-1200; test: antimicrobial activity, MIC; format: cell-based; conditions: not given

Structure (SMILES) | MIC [µg/mL]
CCCOc1ccccc1C(=CSCc1ccccc1)n1ccnc1 (single isomer, unassigned) [Compound 4] | > 100
CCCOc1ccccc1C(=CSc1ccccc1)n1ccnc1 (single isomer, unassigned) [Compound 65] | > 100

test system: Aspergillus niger ATCC 9642; test: antimicrobial activity, MIC; format: cell-based; conditions: Aspergillus niger ATCC 9642

Structure (SMILES) | MIC [µg/mL]
CCCOc1ccccc1C(=CSCc1ccccc1)n1ccnc1 (single isomer, unassigned) [Compound 4] | 1.56 (≈ 4.45 µM)
CCCOc1ccccc1C(=CSc1ccccc1)n1ccnc1 (single isomer, unassigned) [Compound 65] | > 100

test system: Staphylococcus epidermidis ATCC 12228; test: antimicrobial activity, MIC; format: cell-based; conditions: Staphylococcus epidermidis ATCC 12228

Structure (SMILES) | MIC [µg/mL]
CCCOc1ccccc1C(=CSCc1ccccc1)n1ccnc1 (single isomer, unassigned) [Compound 4] | 12.5 (≈ 35.7 µM)
CCCOc1ccccc1C(=CSc1ccccc1)n1ccnc1 (single isomer, unassigned) [Compound 65] | 6.25 (≈ 18.6 µM)

test system: Trichophyton mentagrophytes QM 248; test: antimicrobial activity, MIC; format: cell-based; conditions: Trichophyton mentagrophytes QM 248

Structure (SMILES) | MIC [µg/mL]
CCCOc1ccccc1C(=CSCc1ccccc1)n1ccnc1 (single isomer, unassigned) [Compound 4] | < 0.2
CCCOc1ccccc1C(=CSc1ccccc1)n1ccnc1 (single isomer, unassigned) [Compound 65] | 12.5 (≈ 37.2 µM)

test system: Streptococcus faecalis IFO 12964; test: antimicrobial activity, MIC; format: cell-based; conditions: Streptococcus faecalis IFO 12964

Structure (SMILES) | MIC [µg/mL]
CCCOc1ccccc1C(=CSCc1ccccc1)n1ccnc1 (single isomer, unassigned) [Compound 4] | 12.5 (≈ 35.7 µM)
CCCOc1ccccc1C(=CSc1ccccc1)n1ccnc1 (single isomer, unassigned) [Compound 65] | 12.5 (≈ 37.2 µM)

test system: Microsporum audounii IFO 6074; test: antimicrobial activity, MIC; format: cell-based; conditions: Microsporum audounii IFO 6074

Structure (SMILES) | MIC [µg/mL]
CCCOc1ccccc1C(=CSCc1ccccc1)n1ccnc1 (single isomer, unassigned) [Compound 4] | < 0.2
CCCOc1ccccc1C(=CSc1ccccc1)n1ccnc1 (single isomer, unassigned) [Compound 65] | 6.25 (≈ 18.6 µM)

test system: Aspergillus oryzae IMF 4014; test: antimicrobial activity, MIC; format: cell-based; conditions: Aspergillus oryzae IMF 4014

Structure (SMILES) | MIC [µg/mL]
CCCOc1ccccc1C(=CSCc1ccccc1)n1ccnc1 (single isomer, unassigned) [Compound 4] | 1.56 (≈ 4.45 µM)
CCCOc1ccccc1C(=CSc1ccccc1)n1ccnc1 (single isomer, unassigned) [Compound 65] | > 100

test system: Gibberella fujikuroi IAM 8046; test: antimicrobial activity, MIC; format: cell-based; conditions: Gibberella fujikuroi IAM 8046

Structure (SMILES) | MIC [µg/mL]
CCCOc1ccccc1C(=CSCc1ccccc1)n1ccnc1 (single isomer, unassigned) [Compound 4] | 0.78 (≈ 2.23 µM)
CCCOc1ccccc1C(=CSc1ccccc1)n1ccnc1 (single isomer, unassigned) [Compound 65] | > 100

test system: Trichophyton rubrum NHL J; test: antimicrobial activity, MIC; format: cell-based; conditions: Trichophyton rubrum NHL J

Structure (SMILES) | MIC [µg/mL]
CCCOc1ccccc1C(=CSCc1ccccc1)n1ccnc1 (single isomer, unassigned) [Compound 4] | < 0.2
CCCOc1ccccc1C(=CSc1ccccc1)n1ccnc1 (single isomer, unassigned) [Compound 65] | 3.12 (≈ 9.27 µM)

test system: Trichophyton mentagrophytes IFO 5812; test: antimicrobial activity, MIC; format: cell-based; conditions: Trichophyton mentagrophytes IFO 5812

Structure (SMILES) | MIC [µg/mL]
CCCOc1ccccc1C(=CSCc1ccccc1)n1ccnc1 (single isomer, unassigned) [Compound 4] | < 0.2
CCCOc1ccccc1C(=CSc1ccccc1)n1ccnc1 (single isomer, unassigned) [Compound 65] | 3.12 (≈ 9.27 µM)
